How the values were obtained:
CDK4 [1] = biological target: T1, CDK4 (Homo sapiens, UniProt P11802); assay: Enzyme degradation assay (western blot), Molt4 wild-type cells, CDK4; assay type: cell-based; design: levels of CDK4, CDK6, and tubulin in wild-type (WT) or cereblon knockout (CRBN−/−) Molt4 cells; endogenous in cells; host or cells: Molt4 cells, wild-type or cereblon knockout (CRBN-/-); details: wild-type (WT) Molt4 cells, various concentrations, FIG. 2
Excerpt: (§1) Lysates are then cleared by centrifugation.
(§2) Lysates were then cleared by centrifugation.

CDK4 [2] = biological target: T1, CDK4; assay: Enzyme degradation assay (western blot), Jurkat cells, CDK4; assay type: cell-based; design: levels of CDK4, CDK6, and tubulin in wild-type (WT) or cereblon knockout (CRBN−/−) Molt4 cells; endogenous in cells; details: 5 μM, various time points, FIG. 1
Excerpt: as §1, §2

T1 sequence (P11802 whole entry): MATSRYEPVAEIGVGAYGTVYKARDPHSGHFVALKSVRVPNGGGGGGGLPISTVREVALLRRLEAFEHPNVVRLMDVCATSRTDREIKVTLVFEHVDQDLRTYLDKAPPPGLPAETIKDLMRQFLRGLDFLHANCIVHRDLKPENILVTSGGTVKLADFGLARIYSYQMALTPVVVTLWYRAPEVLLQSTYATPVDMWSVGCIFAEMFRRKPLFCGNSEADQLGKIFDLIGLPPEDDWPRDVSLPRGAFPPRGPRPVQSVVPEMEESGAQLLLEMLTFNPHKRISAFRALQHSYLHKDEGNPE

CC(=O)c1c(C)c2cnc(Nc3ccc(N4CCN(CC(=O)NCCOCCOCCOCCNc5cccc6c5C(=O)N(C5CCC(=O)NC5=O)C6=O)CC4)cn3)nc2n(C2CCCC2)c1=O (centres unmarked) [Compound I-3, 2-(4-(6-((6-acetyl-8-cyclopentyl-5-methyl-7-oxo-7,8-dihydropyrido[2,3-d]pyrimidin-2-yl)amino)pyridin-3-yl)piperazin-1-yl)-N-(2-(2-(2-(2-((2-(2,6-dioxopiperidin-3-yl)-1,3-dioxoisoindolin-4-yl)amino)ethoxy)ethoxy)ethoxy)ethyl)acetamide]
levels of CDK4 (western blot) (CDK4 [1]): unaffected | levels of CDK4 (western blot) (CDK4 [2]): unaffected

Reference: patent US10865204B2, “Degradation of cyclin-dependent kinase 4/6 (CDK4/6) by conjugation of CDK4/6 inhibitors with E3 ligase ligand and methods of use” (Dana-Farber Cancer Institute, Inc., priority 2016, dated 2020)
